Measurements taken from publication PMC12221989, “One-carbon homologation of alkenes” (Nature, 2025).

Legend:
in vitro = settings: human
Method: Metabolic stability assay
Hepatic microsomal stability assays were conducted by Charles River Laboratories. Assays were performed in duplicate.
The stability of the test compound (1 µM) was measured following incubation at 37 °C with […] (0.5 mg protein/mL) in the presence of the cofactor, NADPH.
Incubates were prepared in duplicate, with aliquots removed at 0, 5, 10, 20 and 40 minutes and reactions terminated, and the compound was extracted by the addition of solvent. The disappearance of the parent compound was be monitored by LC-MS/MS and the half-life determined over the time-course of incubation. The half-life value was used to calculate the in vitro intrinsic clearance expressed as µL/min/mg protein.
Table S11. Metabolic Stability Data
Half- Half- Half- Clint Clint Mean Clint
Compound Cofactor life life Life (uL/min/mg (uL/min/mg (uL/min/mg Species (min) (min) (min) protn) n=1 protn) n=2 protn) (results)

T cell proliferation = settings: Fig. 1a; cited from earlier work
Source text: Fig. 1 Evolution of a strategy for one-carbon alkene homologation. a, The effect of homologues on biological activity: side chain length compared with immunosuppressive activity in a family of natural products. b, Homologation processes for common functional groups. c, Generally adopted sequence for alkene homologation. d, Design plan for a catalytic one-carbon alkene homologation process. TEXT PRINTED IN THE PICTURE: (a) R = CH3 FK-523 (FR-900523): T cell proliferation IC50 (nM): 2.72 | (a) R = CH2CH3 FK-520 (ascomycin): T cell proliferation IC50 (nM): 0.69 | (a) R = CH2CH2CH3: T cell prolife ...

Human Cyclophilin A = Human Cyclophilin A (Homo sapiens, UniProt P62937); assay: PPIase TR-FRET competitive binding assay
Method: PPIase TR-FRET competitive binding assay
Cyclophilin A assays were conducted by Eurofins Integrated Discovery UK Ltd (EID) to determine the inhibitory activity of the analogues against the Human Cyclophilin A in a TR-FRET Competitive Binding assay. Assays were performed in duplicate, with Kd values calculated from mean averages. […]
binding to the CypA enzyme: the CypA enzyme, tagged with a polyhistidine sequence, forms a complex with an anti-6xHis antibody labelled with a fluorescent donor, F(d), and the enzyme […]
Compounds are diluted from DMSO stocks to 50-fold the final concentration and then in assay buffer to 2-fold the final assay plate concentration. An equal volume of compound is added to the master mix in the assay plate containing the enzyme/antibody/ligand complex, with a final concentration of detergent of 0.01%. This is incubated for 30 mins at room temperature and the plate read at 2 wavelengths (A and B) to detect emission from F(d) and F(a), respectively. The ratio B/A is calculated, blank subtracted and either expressed as a percentage of the ‘no inhibitor’ control or the blank subtracted values are plotted against the inhibitor concentration in Log10 Molar and fitted using one site Ki nonlinear regression to determine the Kd. Where possible, compound Kds are determined from duplicate data points. Each assay plate is set up with ‘no enzyme’ blanks and ‘no inhibitor’ controls, which are used to determine the Z’ value for each plate.

Jurkat cells = assay: IL-2 release assay, Jurkat cells stimulated with anti-CD3/anti-CD28; format: cell-based, human; settings: for IL-2 levels, Mean: mean of three replicates normalized to the vehicle control
Method: Interleukin-2 (IL-2) release assays were conducted by Eurofins Pan Labs to determine ability for the analogues to inhibit IL-2 secretion from Jurkat cells following stimulation with anti-CD3 and anti-CD28 for a period of 24 hours. Data shown are means of three replicates normalized to the vehicle control
1) Cryopreserved Jurkat cells were thawed and cultured according to established protocols for four days at 37°C, 5% CO2 prior to assay.
2) Jurkat cells were harvested and seeded into 96-well plates at a density of 2x10^5 cells/well with […]
penicillin/streptomycin, and 2 mM L-glutamine).
3) Cells were incubated at 37°C, 5% CO2 for 1 hour prior to the addition of test agents.
4) The test agents were serially diluted in DMSO to 1000X assay concentrations, then further diluted to 20X assay concentrations in culture medium. The reference inhibitor Cyclosporin A (Sigma Aldrich catalog #C1832) was diluted to 1000X assay concentrations in DMSO before dilution to 20X assay concentration in culture medium.
5) The test agents, reference inhibitor, and diluted vehicle controls were added to the cells in volumes of 10 μL in triplicate and incubated for 1 hour at 37°C, 5% CO2. […]
concentrations in culture medium. The corresponding isotype controls were diluted to 5X assay concentrations in culture medium.
7) Diluted anti-CD3/anti-CD28 was added to test agent and positive control wells in volumes of 40 μL according to the plate map. Isotype controls were added to the isotype control wells.
Culture medium was added to vehicle and unstimulated control wells. […]
assay volumes of 200 μL and control concentrations of 50 ng/mL cyclosporin A (reference inhibitor), 0.1% DMSO (vehicle), 15 μg/mL anti-CD3, and 15 μg/mL anti-CD28.
8) Cells were incubated for 24 hours at 37°C, 5% CO2.
9) At the end of the incubation period, plates were centrifuged at 200g for 10 minutes. Cell culture supernatants were collected and stored at -80°C until needed for analysis.
Data Analysis and Analyte Limits of Detection
IL-2 cytokine levels in cell culture supernatants were determined using Luminex methodology per the manufacturer’s protocol using the Human Cytokine/Chemokine/Growth Factor Panel A Kit from Millipore Sigma (catalog #HCYTA-60K) with standard ranges and limits of detection in Table S9. Levels of each cytokine were interpolated from standard curves using non-linear regression analysis in Belysa Software (Millipore Sigma). The raw data in the form of median fluorescence unit was interpolated into test concentrations (pg/mL). The interpolated data were then normalized to the vehicle control
Table S9. Analyte limit of detection
Analyte Lowest standard (pg/mL) Highest standard (pg/mL) Sensitivity (pg/mL) […]
Reported mean values (pg/mL) are from three biological replicates normalized to the vehicle […]
Fig. S5. IL-2 release by Jurkat cells following stimulation with anti-CD3/anti-CD28 and treatment with the indicated test agent for 24 hours. Error bars indicate the standard error of the […]

[1] = Reversed-phase HPLC retention as measure of lipophilicity; settings: reversed-phase C18, Fig. S4-b; corroborates calculated lipophilicity
[2] = system: calcineurin in the presence of Cyclophilin A; assay: Calcineurin inhibition assay (phosphatase activity in the presence of Cyclophilin A); format: biochemical
Method: Calcineurin inhibition assay
Calcineurin inhibition assays were conducted by Eurofins Integrated Discovery UK Ltd (EID) to determine the effect of compounds on the activity of calcineurin in the presence of Cyclophilin A. Assays were performed in duplicate, with IC50 values calculated from mean […]
Compounds were diluted with and without immunophilin (CypA) in a 96-well plate. After addition of calcineurin/calmodulin complex, the plate was incubated at 30 °C for 10 minutes.
The addition of the RII phosphopeptide substrate initiated the reaction, and the plate was […]
The reaction was stopped by the addition of Malachite green reagent. The plate was incubated at room temperature to allow colour development (5 – 20 mins). After sufficient colour has developed, the absorbance is read at 620 nm. Blank subtracted absorbance readings are plotted against compound concentration to determine IC50 values or % inhibition at the top concentration.

[3] = in vitro calcineurin phosphatase activity assay

Sequence of Human Cyclophilin A (P62937 whole entry): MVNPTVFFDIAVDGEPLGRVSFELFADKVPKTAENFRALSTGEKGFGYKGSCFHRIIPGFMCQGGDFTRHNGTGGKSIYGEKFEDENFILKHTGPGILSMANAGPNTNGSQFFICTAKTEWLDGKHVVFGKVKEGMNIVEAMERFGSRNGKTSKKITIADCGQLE

## COc1ccc2c(c1)[C@]13CCCC[C@@H]1[C@H](C2)N(C)CC3 [Dextromethorphan, reference compound]
In vitro
  Clint (uL/min/mg protn) n=1: 29
  Clint (uL/min/mg protn) n=2: 29
  Half-Life (min) (Mean): 48 min
  Half-life (min) n=1: 49 min
  Half-life (min) n=2: 47 min
  Mean Clint (uL/min/mg protn): 29

## C=CC[C@@H]1/C=C(\C)C[C@H](C)C[C@H](OC)[C@H]2O[C@@](O)(C(=O)C(=O)N3CCCC[C@H]3C(=O)O[C@H](/C(C)=C/[C@@H]3CC[C@@H](O)[C@H](OC)C3)[C@H](C)[C@@H](O)CC1=O)[C@H](C)C[C@@H]2OC [Tacrolimus, tacrolimus]
T cell proliferation
  IC50: 0.18 nM

## [2H]C([2H])([2H])/C=C/CC[C@@H](C)[C@@H](O)[C@H]1C(=O)N[C@@H](CC)C(=O)N(C)CC(=O)N(C)[C@@H](CC(C)C)C(=O)N[C@@H](C(C)C)C(=O)N(C)[C@@H](CC(C)C)C(=O)N[C@@H](C)C(=O)N[C@H](C)C(=O)N(C)[C@@H](CC(C)C)C(=O)N(C)[C@@H](CC(C)C)C(=O)N(C)[C@@H](C(C)C)C(=O)N1C [compound 23]
In vitro; both, liver microsomes
  half-life at 1 µM: 31 min
In vitro
  Clint (uL/min/mg protn) n=1: 44 uL/min/mg protn
  Clint (uL/min/mg protn) n=2: 45 uL/min/mg protn
  Half-life (min) n=1: 32 min
  Half-life (min) n=2: 31 min
  Mean Clint (uL/min/mg protn): 44 uL/min/mg protn
Human Cyclophilin A
  Kd: 45.9 nM

## CC[C@@H]1/C=C(\C)C[C@H](C)C[C@H](OC)[C@H]2O[C@@](O)(C(=O)C(=O)N3CCCC[C@H]3C(=O)O[C@H](/C(C)=C/[C@@H]3CC[C@@H](O)[C@H](OC)C3)[C@H](C)[C@@H](O)CC1=O)[C@H](C)C[C@@H]2OC [FK-520, ascomycin]
T cell proliferation
  IC50: 0.69 nM

## C/C=C/CCC[C@@H](C)[C@@H](O)[C@H]1C(=O)N[C@@H](CC)C(=O)N(C)CC(=O)N(C)[C@@H](CC(C)C)C(=O)N[C@@H](C(C)C)C(=O)N(C)[C@@H](CC(C)C)C(=O)N[C@@H](C)C(=O)N[C@H](C)C(=O)N(C)[C@@H](CC(C)C)C(=O)N(C)[C@@H](CC(C)C)C(=O)N(C)[C@@H](C(C)C)C(=O)N1C [compound 22, E-bishomo Cyclosporine-A]
Jurkat cells; at high concentrations (≥1 µM), Jurkat T cells
  suppression of IL-2 secretion (in words): effectively suppressed IL-2 secretion
Jurkat cells; test agent 0.032 µM
  IL-2 levels, Mean: 7.0 pg/mL
Jurkat cells; test agent 0.10 µM
  IL-2 levels, Mean: 1.9 pg/mL
Jurkat cells; test agent 0.32 µM
  IL-2 levels, Mean: 1.1 pg/mL
Jurkat cells; test agent 1.0 µM
  IL-2 levels, Mean: 0.9 pg/mL
Jurkat cells; test agent 3.2 µM
  IL-2 levels, Mean: 0.5 pg/mL
Jurkat cells; test agent 10 µM
  IL-2 levels, Mean: 0.7 pg/mL
In vitro
  Clint (uL/min/mg protn) n=1: 81 uL/min/mg protn
  Clint (uL/min/mg protn) n=2: 78 uL/min/mg protn
  Half-life (min) n=1: 17 min
  Mean Clint (uL/min/mg protn): 79 uL/min/mg protn
Human Cyclophilin A
  Kd: 23.6 nM
[1]
  increase of HPLC retention time upon each homologation event: ~ 2.5 minutes
[2]; [3]
  calcineurin inhibition compared with cyclosporine A (in words): retained comparable potency to cyclosporine A
[2]; with CypA, calcineurin/calmodulin, RII phosphopeptide substrate, 30 °C 45 min, Malachite green A620, duplicate, IC50 from mean averages
  IC50: 158 nM

## CO[C@H]1C[C@@H](C)C/C(C)=C\[C@@H](C)C(=O)C[C@H](O)[C@@H](C)[C@@H](/C(C)=C/[C@@H]2CC[C@@H](O)[C@H](OC)C2)OC(=O)[C@@H]2CCCCN2C(=O)C(=O)[C@]2(O)O[C@H]1[C@@H](OC)C[C@H]2C [FK-523]
T cell proliferation
  IC50: 2.72 nM

## Cc1ncc2n1-c1ccc(Cl)cc1C(c1ccccc1F)=NC2 [Midazolam, reference compound]
In vitro
  Clint (uL/min/mg protn) n=1: 277
  Clint (uL/min/mg protn) n=2: 277
  Half-Life (min) (Mean): 5 min
  Half-life (min) n=1: 5 min
  Half-life (min) n=2: 5 min
  Mean Clint (uL/min/mg protn): 277

## CC[C@@H]1NC(=O)[C@H]([C@H](O)[C@H](C)CC/C=C\F)N(C)C(=O)[C@H](C(C)C)N(C)C(=O)[C@H](CC(C)C)N(C)C(=O)[C@H](CC(C)C)N(C)C(=O)[C@@H](C)NC(=O)[C@H](C)NC(=O)[C@H](CC(C)C)N(C)C(=O)[C@H](C(C)C)NC(=O)[C@H](CC(C)C)N(C)C(=O)CN(C)C1=O [compound 24]
In vitro
  Clint (uL/min/mg protn) n=1: 48 uL/min/mg protn
  Clint (uL/min/mg protn) n=2: 53 uL/min/mg protn
  Half-life (min) n=1: 29 min
  Half-life (min) n=2: 26 min
  Mean Clint (uL/min/mg protn): 51 uL/min/mg protn
[2]; [3]
  decrease in phosphatase activity compared with cyclosporine A: 10 fold

## CCCC1C=C(C)CC(C)CC(OC)C2OC(O)(C(=O)C(=O)N3CCCCC3C(=O)OC(C(C)=CC3CCC(O)C(OC)C3)C(C)C(O)CC1=O)C(C)CC2OC (stereo not shown) [R = CH2CH2CH3]
T cell proliferation
  IC50: 0.93 nM

## C=CCCC[C@@H](C)[C@@H](O)[C@H]1C(=O)N[C@@H](CC)C(=O)N(C)CC(=O)N(C)[C@@H](CC(C)C)C(=O)N[C@@H](C(C)C)C(=O)N(C)[C@@H](CC(C)C)C(=O)N[C@@H](C)C(=O)N[C@H](C)C(=O)N(C)[C@@H](CC(C)C)C(=O)N(C)[C@@H](CC(C)C)C(=O)N(C)[C@@H](C(C)C)C(=O)N1C [compound 26, homoisocyclosporine A]
In vitro
  Clint (uL/min/mg protn) n=1: 69 uL/min/mg protn
  Clint (uL/min/mg protn) n=2: 65 uL/min/mg protn
  Mean Clint (uL/min/mg protn): 67 uL/min/mg protn
Human Cyclophilin A
  Kd: 10.2 nM
[2]; [3]
  calcineurin inhibition compared with cyclosporine A (in words): restored calcineurin inhibition to levels comparable with those of cyclosporine A
